# Like-named read-outs stand apart in the source and are kept apart here.
# Key:
# [1] = Blood concentration after oral (intragastric) administration to Beagle dogs; assay type: in vivo; details: for concentration: listed as Commercially available mangiferin aglycone
# Procedure: Solid powder of mangiferin aglycone crystal form I and commercially available mangiferin aglycone (reference substance of mangiferin aglycone, purchased from Sigma Corporation, Lot No.: 8420-201002) were administered to Beagle dogs intragastrically respectively. The dosage of administration was 6mg/kg, and arterial blood of the dogs was drawn at different time points after administration to determine the content of mangiferin aglycone (See Table 4 and Figure 6). Table 4. Comparison of blood concentrations at different time points after mangiferin aglycone samples were administered orally to Beagle dogs
# [2] = Stability of solutions in alkaline phosphate buffer, content by HPLC; assay type: physicochemical; details: for remaining at 2 h / remaining at 4 h / remaining at 6 h / remaining at 8 h / remaining at 12 h: phosphate buffer, read-out: content of mangiferin aglycone
# Procedure: Appropriate amounts of mangiferin aglycone crystal form I and mangiferin aglycone were taken respectively, and phosphate buffer of pH 8.0, pH 9.0 and pH 10.0 were added respectively, metered to 100 ml, and were allowed to stand at 37°C, and samples were taken at 2, 4, 6, 8 and 12 hours respectively, and the content of mangiferin aglycone were measured by HPLC method. Stability of solution of mangiferin aglycone crystal form I
# [3] = Active destructing test (stability) with HPLC analysis; assay type: physicochemical
# Procedure: Active destructing test of mangiferin aglycone crystal form I: high purity mangiferin aglycone obtained in the same batch was respectively subjected to the following treatments: • (1) Destruction by strong acid: 0.5 mg sample was precisely weighed in a 50 ml measuring flask, and 1 ml of 0.1 mol/L hydrochloric acid aqueous solution was added, mixed evenly, and was allowed to stand for 48 hours at 20~30°C; • (2) Destruction by strong base: 0.5 mg sample was precisely weighed in a 50 ml measuring flask, and 1 ml of 0.1 mol/L sodium hydroxide aqueous solution was added, mixed evenly, and was allowed to stand for 48 hours at 20~30°C; • (3) Destruction by strong oxidant: 0.5 mg sample was precisely weighed in a 50 ml measuring flask, and 1 ml of 10% aqueous solution of hydrogen peroxide (H2O2) was added, mixed evenly, and was allowed to stand for 48 hours at 20~30°C; • (4) Destruction by high temperature: 0.5 mg sample was precisely weighed in a 50 ml measuring flask, and was allowed to stand for 48 hours at 100°C; • (5) Destruction by strong light: 0.5 mg sample was precisely weighed in a 50 ml measuring flask, and was allowed to stand for 240 hours under strong light condition of 4500±500 lux. The above-mentioned testing samples were taken out at specified time points, and methanol was added to dissolve and diluted the sample to the scale mark, shook well, then […] samples were analyzed by HPLC.
# Stability test of mangiferin aglycone crystal form I
# C57BL/6 normal mouse = details: reported from CN200810196777.4, cited from earlier work
# [4] = test system: C57BL/6 normal mice and ob/ob diabetes model mice; details: cited from earlier work
# [5] = biological target: T1, recombinant humanized protein tyrosine phosphatase 1B (Homo sapiens, UniProt P18031); details: reported from CN200910184185.5; cited from earlier work
# T1 sequence (P18031 1-435): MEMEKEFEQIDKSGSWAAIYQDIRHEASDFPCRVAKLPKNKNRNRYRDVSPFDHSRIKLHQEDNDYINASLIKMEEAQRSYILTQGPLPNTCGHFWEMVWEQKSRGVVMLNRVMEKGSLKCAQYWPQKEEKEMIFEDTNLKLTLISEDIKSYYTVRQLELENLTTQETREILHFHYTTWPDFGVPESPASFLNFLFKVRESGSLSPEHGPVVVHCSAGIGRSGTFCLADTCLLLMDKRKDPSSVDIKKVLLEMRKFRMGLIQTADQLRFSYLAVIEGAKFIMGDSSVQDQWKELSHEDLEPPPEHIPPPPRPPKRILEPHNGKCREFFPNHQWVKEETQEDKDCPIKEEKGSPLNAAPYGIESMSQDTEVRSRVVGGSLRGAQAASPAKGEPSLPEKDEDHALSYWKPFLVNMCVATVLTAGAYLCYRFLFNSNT
# [6] = destructing by high temperature: 48 hours at 100°C
# [7] = destructing by strong acid: 0.1 mol/L hydrochloric acid, 48 hours at 20~30°C
# [8] = destructing by strong base: 0.1 mol/L sodium hydroxide, 48 hours at 20~30°C
# [9] = destructing by strong light: 240 hours at 4500±500 lux
# [10] = destructing by strong oxidant: 10% hydrogen peroxide, 48 hours at 20~30°C
compound,measurement,setting,value
"O=c1c2cc(O)c(O)cc2oc2cc(O)cc(O)c12 [mangiferin aglycone crystal form I, 1,3,6,7-tetrahydroxyxanthone]",concentration at 0.25 h,"[1]; dog, serum, po, 6 mg/kg, intragastrically, 6mg/kg, solid powder, 0.25 hr, read-out: Mangiferin aglycone concentration in serum",721 nM
same,concentration at 0.5 h,"[1]; dog, serum, po, 6 mg/kg, intragastrically, 6mg/kg, solid powder, 0.5 hr, read-out: Mangiferin aglycone concentration in serum",470 nM
same,concentration at 0.75 h,"[1]; dog, serum, po, 6 mg/kg, intragastrically, 6mg/kg, solid powder, 0.75 hr, read-out: Mangiferin aglycone concentration in serum",601 nM
same,concentration at 1 h,"[1]; dog, serum, po, 6 mg/kg, intragastrically, 6mg/kg, solid powder, 1 hr, read-out: Mangiferin aglycone concentration in serum",387 nM
same,concentration at 1.5 h,"[1]; dog, serum, po, 6 mg/kg, intragastrically, 6mg/kg, solid powder, 1.5 hr, read-out: Mangiferin aglycone concentration in serum",163 nM
same,concentration at 2 h,"[1]; dog, serum, po, 6 mg/kg, intragastrically, 6mg/kg, solid powder, 2 hr, read-out: Mangiferin aglycone concentration in serum",158 nM
same,concentration at 3 h,"[1]; dog, serum, po, 6 mg/kg, intragastrically, 6mg/kg, solid powder, 3 hr, read-out: Mangiferin aglycone concentration in serum",119 nM
same,concentration at 4 h,"[1]; dog, serum, po, 6 mg/kg, intragastrically, 6mg/kg, solid powder, 4 hr, read-out: Mangiferin aglycone concentration in serum",96 nM
same,concentration at 6 h,"[1]; dog, serum, po, 6 mg/kg, intragastrically, 6mg/kg, solid powder, 6 hr, read-out: Mangiferin aglycone concentration in serum",84.4 nM
same,concentration at 8 h,"[1]; dog, serum, po, 6 mg/kg, intragastrically, 6mg/kg, solid powder, 8 hr, read-out: Mangiferin aglycone concentration in serum",80.8 nM
same,oral bioavailability,"[1]; same oral dosage, compared with commercially available mangiferin aglycone",higher
same,stability of solution,"[2]; different alkaline phosphate buffer solutions, compared with mangiferin aglycone",better
same,remaining at 2 h,"[2]; pH 8, phosphate buffer pH8, 37°C, standing time 2h",98.6%
same,remaining at 4 h,"[2]; pH 8, phosphate buffer pH8, 37°C, standing time 4h",98.4%
same,remaining at 6 h,"[2]; pH 8, phosphate buffer pH8, 37°C, standing time 6h",98.3%
same,remaining at 8 h,"[2]; pH 8, phosphate buffer pH8, 37°C, standing time 8h",98.2%
same,remaining at 12 h,"[2]; pH 8, phosphate buffer pH8, 37°C, standing time 12h",97.5%
same,remaining at 2 h,"[2]; pH 9, phosphate buffer pH9, 37°C, standing time 2h",98.5%
same,remaining at 4 h,"[2]; pH 9, phosphate buffer pH9, 37°C, standing time 4h",98.2%
same,remaining at 6 h,"[2]; pH 9, phosphate buffer pH9, 37°C, standing time 6h",98%
same,remaining at 8 h,"[2]; pH 9, phosphate buffer pH9, 37°C, standing time 8h",97.8%
same,remaining at 12 h,"[2]; pH 9, phosphate buffer pH9, 37°C, standing time 12h",97.2%
same,remaining at 2 h,"[2]; pH 10, phosphate buffer pH10, 37°C, standing time 2h",97.2%
same,remaining at 4 h,"[2]; pH 10, phosphate buffer pH10, 37°C, standing time 4h",97.4%
same,remaining at 6 h,"[2]; pH 10, phosphate buffer pH10, 37°C, standing time 6h",97%
same,remaining at 8 h,"[2]; pH 10, phosphate buffer pH10, 37°C, standing time 8h",96.3%
same,remaining at 12 h,"[2]; pH 10, phosphate buffer pH10, 37°C, standing time 12h",95%
same,"stability to light, moisture, heat",[3]; conclusion from the active destructing test,stable
same,peak area of mangiferin aglycone,[3]; [6],233
same,situations of other degradation products,[3]; [6],No new peak for degradation product was found
same,peak area of mangiferin aglycone,[3]; [7],234
same,situations of other degradation products,[3]; [7],No new peak for degradation product was found
same,peak area of mangiferin aglycone,[3]; [8],0
same,situations of other degradation products,[3]; [8],"UV shift occurred, and there were many peaks for degradation products"
same,peak area of mangiferin aglycone,[3]; [9],234
same,situations of other degradation products,[3]; [9],No peak for degradation product was found
same,peak area of mangiferin aglycone,[3]; [10],215
same,situations of other degradation products,[3]; [10],One new degradation product was found
same,peak area of mangiferin aglycone,[3]; undestructed (baseline sample),234
same,situations of other degradation products,[3]; undestructed (baseline sample),No new peak for degradation product was found
"O=c1c2cc(O)c(O)cc2oc2cc(O)cc(O)c12 [mangiferin aglycone, 1,3,6,7-tetrahydroxyxanthone]",concentration,"[1]; intragastrically, 6mg/kg, solid powder, 0.25 hr, 6 mg/kg, 15 min, read-out: Mangiferin aglycone concentration in serum",666 nM
same,concentration,"[1]; intragastrically, 6mg/kg, solid powder, 0.5 hr, 6 mg/kg, 30 min, read-out: Mangiferin aglycone concentration in serum",404 nM
same,concentration,"[1]; intragastrically, 6mg/kg, solid powder, 0.75 hr, 6 mg/kg, 45 min, read-out: Mangiferin aglycone concentration in serum",414 nM
same,concentration,"[1]; intragastrically, 6mg/kg, solid powder, 1 hr, 6 mg/kg, 60 min, read-out: Mangiferin aglycone concentration in serum",366 nM
same,concentration,"[1]; intragastrically, 6mg/kg, solid powder, 1.5 hr, 6 mg/kg, 90 min, read-out: Mangiferin aglycone concentration in serum",136 nM
same,concentration,"[1]; intragastrically, 6mg/kg, solid powder, 2 hr, 6 mg/kg, 120 min, read-out: Mangiferin aglycone concentration in serum",108 nM
same,concentration,"[1]; intragastrically, 6mg/kg, solid powder, 3 hr, 6 mg/kg, 180 min, read-out: Mangiferin aglycone concentration in serum",100 nM
same,concentration,"[1]; intragastrically, 6mg/kg, solid powder, 4 hr, 6 mg/kg, 240 min, read-out: Mangiferin aglycone concentration in serum",70.1 nM
same,concentration,"[1]; intragastrically, 6mg/kg, solid powder, 6 hr, 6 mg/kg, 360 min, read-out: Mangiferin aglycone concentration in serum",52.6 nM
same,concentration,"[1]; intragastrically, 6mg/kg, solid powder, 8 hr, 6 mg/kg, 480 min, read-out: Mangiferin aglycone concentration in serum",41.3 nM
same,blood concentration,"[1]; same oral dosage, compared with mangiferin aglycone crystal form I",significantly lower
same,content of mangiferin aglycone,"[2]; phosphate buffer pH8, 37°C, standing time 2h, 120 min",98.5%
same,content of mangiferin aglycone,"[2]; phosphate buffer pH8, 37°C, standing time 4h, 240 min",97.5%
same,content of mangiferin aglycone,"[2]; phosphate buffer pH8, 37°C, standing time 6h, 360 min",96.3%
same,content of mangiferin aglycone,"[2]; phosphate buffer pH8, 37°C, standing time 8h, 480 min",94.5%
same,content of mangiferin aglycone,"[2]; phosphate buffer pH8, 37°C, standing time 12h, 720 min",93.2%
same,content of mangiferin aglycone,"[2]; phosphate buffer pH9, 37°C, standing time 2h, 120 min",97.3%
same,content of mangiferin aglycone,"[2]; phosphate buffer pH9, 37°C, standing time 4h, 240 min",94.3%
same,content of mangiferin aglycone,"[2]; phosphate buffer pH9, 37°C, standing time 6h, 360 min",93.4%
same,content of mangiferin aglycone,"[2]; phosphate buffer pH9, 37°C, standing time 8h, 480 min",92.3%
same,content of mangiferin aglycone,"[2]; phosphate buffer pH9, 37°C, standing time 12h, 720 min",91.0%
same,content of mangiferin aglycone,"[2]; phosphate buffer pH10, 37°C, standing time 2h, 120 min",97.7%
same,content of mangiferin aglycone,"[2]; phosphate buffer pH10, 37°C, standing time 4h, 240 min",93.8%
same,content of mangiferin aglycone,"[2]; phosphate buffer pH10, 37°C, standing time 6h, 360 min",92.1%
same,content of mangiferin aglycone,"[2]; phosphate buffer pH10, 37°C, standing time 8h, 480 min",91.0%
same,content of mangiferin aglycone,"[2]; phosphate buffer pH10, 37°C, standing time 12h, 720 min",90.3%
same,in vivo secretion of insulin induced by glucose,C57BL/6 normal mouse; C57BL/6-normal mouse,increase
same,IGTT,C57BL/6 normal mouse; C57BL/6 normal mouse,significantly improve
same,blood glucose of the experimental animal,[4],reduce
same,sensitivity to insulin,[4],significantly improve
same,type of inhibition,[5],competitive inhibitor

# From EP2716637A1, “MANGIFERIN AGLYCONE CRYSTAL FORM I AND PREPARATION METHOD THEREOF” (Kunming Pharmaceutical Corp., priority 2011, dated 2012)
